Source: US12052991B2, “Substituted pyridinyloxybenzenes and salts thereof and use thereof as herbicidal agents” (Bayer Aktiengesellschaft, priority 2018, dated 2024)

Columns and labels:
Type in all cases: in vivo
Bassia scoparia (KCHSC) = test: Herbicidal post-emergence action (Table B11); details: visual rating about 3 weeks after treatment, 100% = plants have died, 0% = like control plants
Procedure, shortened: (§1)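 Application rates of 1280 or 320 g/ha were tested post-emergence on one-leaf-stage greenhouse plants in sandy loam, using WP or EC formulations with 0.5% additive at 600 L/ha. Activity was rated visually against untreated plants about 3 weeks later.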

[1] = tested on: harmful plants ABUTH, AMARE, ECHCG, LOLRI, MATIN, POAAN, SETVI, STEME, ALOMY, DIGSA, KCHSC and VERPE; test: Herbicidal post-emergence action, summary of Tables B1-B12; details: application rate of 1280 or 320 g of active ingredient per hectare; summary in words
Procedure, shortened: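 Activity scored by eye roughly 3 weeks post-treatment against untreated plants, from 0% (no effect) to 100% (plants dead). Application rates were 1280 or 320 g/ha, as aqueous WP/EC spray plus 0.5% additive at 600 L/ha, onto one-leaf-stage weeds grown 2–3 weeks in sandy loam.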

[2] = tested on: Alopecurus myosuroides (ALOMY); test: Herbicidal post-emergence action (Table B9); details: rated visually after about 3 weeks, 100% = plants have died, 0% = like control plants
Procedure, shortened: as §1

[3] = tested on: Digitaria sanguinalis (DIGSA); test: Herbicidal pre-emergence action, test C (Table C10); details: visual scoring after about 3 weeks, 100% = plants have died, 0% = like control plants
Procedure, shortened: (§2)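 First, weed seeds were sown in sandy loam and covered with soil. Next, aqueous WP/EC preparations plus 0.5% additive were applied to the surface at 600 L/ha (1280 or 320 g/ha). Finally, plants grew in a greenhouse ~3 weeks before visual % scoring against controls.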

Poa annua (POAAN) [4] = test: Herbicidal post-emergence action (Table B3); details: rated visually after about 3 weeks, 100% = plants have died, 0% = like control plants
Procedure, shortened: as §1

[5] = tested on: Amaranthus retroflexus (AMARE); test: Herbicidal pre-emergence action, test C (Table C6); details: visual scoring after about 3 weeks, 100% = plants have died, 0% = like control plants
Procedure, shortened: as §2

[6] = tested on: Amaranthus retroflexus (AMARE); test: Herbicidal post-emergence action (Table B6); details: visual rating about 3 weeks after treatment, 100% = plants have died, 0% = like control plants
Procedure, shortened: as §1

Stellaria media (STEME) [7] = test: Herbicidal pre-emergence action, test C (Table C8); details: visual scoring after about 3 weeks, 100% = plants have died, 0% = like control plants
Procedure, shortened: as §2

[8] = tested on: Abutilon theophrasti (ABUTH); test: Herbicidal post-emergence action (Table B5); details: rated visually after about 3 weeks, 100% = plants have died, 0% = like control plants
Procedure, shortened: as §1

[9] = tested on: Abutilon theophrasti (ABUTH); test: Herbicidal pre-emergence action, test C (Table C5); details: dosage 1280 g/ha; visual scoring after about 3 weeks; 100% = plants have died, 0% = like control plants
Procedure, shortened: as §2

[10] = tested on: Digitaria sanguinalis (DIGSA); test: Herbicidal post-emergence action (Table B10); details: visual rating about 3 weeks after treatment, 100% = plants have died, 0% = like control plants
Procedure, shortened: as §1

Stellaria media (STEME) [11] = test: Herbicidal post-emergence action (Table B8); details: visual rating about 3 weeks after treatment, 100% = plants have died, 0% = like control plants
Procedure, shortened: as §1

[12] = tested on: Echinochloa crus-galli (ECHCG); test: Herbicidal pre-emergence action, test C (Table C1); details: dosage 1280 g/ha; visual scoring after about 3 weeks; 100% = plants have died, 0% = like control plants
Procedure, shortened: as §2

[13] = tested on: Alopecurus myosuroides (ALOMY); test: Herbicidal pre-emergence action, test C (Table C9); details: visual scoring after about 3 weeks, 100% = plants have died, 0% = like control plants
Procedure, shortened: as §2

[14] = tested on: harmful plants ABUTH, AMARE, ECHCG, LOLRI, MATIN, POAAN, SETVI, STEME, ALOMY, DIGSA, KCHSC and VERPE; test: Herbicidal pre-emergence action (test C), summary of Tables C1-C12; details: application rate of 1280 or 320 g of active ingredient per hectare; summary in words
Procedure, shortened: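 Visual % damage versus untreated plants (0% = like control, 100% = died) was scored after about 3 weeks in the greenhouse. Before emergence, seeds sown in sandy loam got a soil-surface spray of compound as WP or EC plus 0.5% additive, using 600 L/ha water at rates of 1280 or 320 g/ha.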

Setaria viridis (SETVI) = test: Herbicidal pre-emergence action, test C (Table C4); details: visual scoring after about 3 weeks, 100% = plants have died, 0% = like control plants
Procedure, shortened: as §2

Veronica persica (VERPE) [15] = test: Herbicidal post-emergence action (Table B12); details: visual rating about 3 weeks after treatment, 100% = plants have died, 0% = like control plants
Procedure, shortened: as §1

[16] = tested on: Matricaria inodora (MATIN); test: Herbicidal post-emergence action (Table B7); details: rated visually after about 3 weeks, 100% = plants have died, 0% = like control plants
Protocol: Seeds of mono- and dicotyledonous weed plants were placed in plastic pots in sandy loam soil (doubly sown with in each case one species of mono- or dicotyledonous weed plants per pot), covered with soil and cultivated in a greenhouse under controlled growth conditions. 2 to 3 weeks after sowing, the test plants were treated at the one-leaf stage. The compounds of the invention, formulated in the form of wettable powders (WP) or as emulsion concentrates (EC), were applied onto the green parts of the plants as aqueous suspension or emulsion with addition of 0.5% additive at a water application rate of 600 liters per hectare (converted). After the test plants had been kept in the greenhouse under optimum growth conditions for about 3 weeks, the activity of the preparations was rated visually in comparison to untreated controls. For example, 100% activity=the plants have died, 0% activity=like control plants. Tables B1 to B12 below show the effects of selected compounds of the general formula (I) according to Table 1 on various harmful plants and an application rate corresponding to 1280 or 320 g/ha, which were obtained by the experimental procedure mentioned above.

Veronica persica (VERPE) [17] = test: Herbicidal pre-emergence action, test C (Table C12); details: visual scoring vs untreated controls
Procedure, shortened: as §2

Lolium rigidum (LOLRI) = test: Herbicidal pre-emergence action, test C (Table C2); details: dosage 1280 g/ha; visual scoring after about 3 weeks; 100% = plants have died, 0% = like control plants
Procedure, shortened: as §2

Poa annua (POAAN) [18] = test: Herbicidal pre-emergence action, test C (Table C3); details: visual scoring after about 3 weeks, 100% = plants have died, 0% = like control plants
Procedure, shortened: as §2

[19] = tested on: Matricaria inodora (MATIN); test: Herbicidal pre-emergence action, test C (Table C7); details: visual scoring after about 3 weeks, 100% = plants have died, 0% = like control plants
Procedure, shortened: as §2

| Compound | Post-emergence action against Bassia scoparia (KCHSC) (Bassia scoparia (KCHSC); dosage 1280 g/ha) [%] | herbicidal activity against the harmful plants of Tables B1-B12 in post-emergence treatment [1] | Post-emergence action against Alopecurus myosuroides (ALOMY) ([2]; 1280 g/ha) [%] | Pre-emergence action against Digitaria sanguinalis (DIGSA) ([3]; dosage 1280 g/ha) [%] | Post-emergence action against Poa annua (POAAN) (Poa annua (POAAN) [4]; 320 g/ha) [%] | Post-emergence action against Poa annua (POAAN) (Poa annua (POAAN) [4]; 1280 g/ha) [%] | Pre-emergence action against Amaranthus retroflexus (AMARE) ([5]; dosage 320 g/ha) [%] | Pre-emergence action against Amaranthus retroflexus (AMARE) ([5]; dosage 1280 g/ha) [%] | Post-emergence action against Amaranthus retroflexus (AMARE) ([6]; dosage 320 g/ha) [%] | Post-emergence action against Amaranthus retroflexus (AMARE) ([6]; dosage 1280 g/ha) [%] | Post-emergence action against Abutilon theophrasti (ABUTH) ([8]; 320 g/ha) [%] | Post-emergence action against Abutilon theophrasti (ABUTH) ([8]; 1280 g/ha) [%] | Post-emergence action against Stellaria media (STEME) (Stellaria media (STEME) [11]; dosage 1280 g/ha) [%] | Pre-emergence action against Alopecurus myosuroides (ALOMY) ([13]; dosage 1280 g/ha) [%] | herbicidal activity against the harmful plants of Tables C1-C12 in pre-emergence treatment [14] | Pre-emergence action against Setaria viridis (SETVI) (Setaria viridis (SETVI); dosage 1280 g/ha) [%] | Post-emergence action against Veronica persica (VERPE) (Veronica persica (VERPE) [15]; dosage 320 g/ha) [%] | Post-emergence action against Veronica persica (VERPE) (Veronica persica (VERPE) [15]; dosage 1280 g/ha) [%] | Post-emergence action against Matricaria inodora (MATIN) ([16]; 1280 g/ha) [%] | Pre-emergence action against Veronica persica (VERPE) (Veronica persica (VERPE) [17]; dosage 1280 g/ha) [%] | further results |
| --- | --- | --- | --- | --- | --- | --- | --- | --- | --- | --- | --- | --- | --- | --- | --- | --- | --- | --- | --- | --- | --- |
| CCc1cccc(Oc2ccc(Cl)cn2)c1-c1cc(C(F)F)no1 [Example 1-59] | 90 | very good herbicidal activity | 100 | 100 | 100 | 100 | 100 | 100 | 90 | 100 | 100 | 100 | 100 | 100 | very good herbicidal activity | 100 | 100 | 100 | 100 | 100 | Post-emergence action against Alopecurus myosuroides (ALOMY) ([2]; 320 g/ha): 100%; Pre-emergence action against Digitaria sanguinalis (DIGSA) ([3]; dosage 320 g/ha): 100%; Pre-emergence action against Stellaria media (STEME) (Stellaria media (STEME) [7]; dosage 320 g/ha): 100%; Pre-emergence action against Stellaria media (STEME) (Stellaria media (STEME) [7]; dosage 1280 g/ha): 100%; Pre-emergence action against Abutilon theophrasti (ABUTH) [9]: 90%; Post-emergence action against Digitaria sanguinalis (DIGSA) ([10]; dosage 320 g/ha): 100%; Post-emergence action against Digitaria sanguinalis (DIGSA) ([10]; dosage 1280 g/ha): 100%; Post-emergence action against Stellaria media (STEME) (Stellaria media (STEME) [11]; dosage 320 g/ha): 100%; Pre-emergence action against Echinochloa crus-galli (ECHCG) [12]: 90%; Pre-emergence action against Alopecurus myosuroides (ALOMY) ([13]; dosage 320 g/ha): 100%; Pre-emergence action against Setaria viridis (SETVI) (Setaria viridis (SETVI); dosage 320 g/ha): 100%; Pre-emergence action against Veronica persica (VERPE) (Veronica persica (VERPE) [17]; dosage 320 g/ha): 100%; Pre-emergence action against Lolium rigidum (LOLRI) (Lolium rigidum (LOLRI)): 100% |
| Fc1cc(Cl)cnc1Oc1ccccc1-c1ccc(Cl)cn1 [Example 1-74] | – | very good herbicidal activity | – | 100 | 100 | 100 | 90 | 90 | 100 | 100 | 90 | 100 | 90 | 100 | very good herbicidal activity | 100 | 100 | 100 | 100 | 90 | Pre-emergence action against Poa annua (POAAN) (Poa annua (POAAN) [18]; dosage 320 g/ha): 100%; Pre-emergence action against Poa annua (POAAN) (Poa annua (POAAN) [18]; dosage 1280 g/ha): 100%; Pre-emergence action against Digitaria sanguinalis (DIGSA) ([3]; dosage 320 g/ha): 90%; Post-emergence action against Matricaria inodora (MATIN) ([16]; 320 g/ha): 100% |
| Cc1cc(C)c(-c2cc(C(F)F)no2)c(Oc2ncc(Cl)cc2F)c1 [Example 1-79] | 90 | very good herbicidal activity | 90 | 100 | 100 | 100 | 100 | 100 | 100 | 100 | 100 | 100 | 100 | 90 | very good herbicidal activity | 100 | 100 | 100 | 90 | 100 | Post-emergence action against Bassia scoparia (KCHSC) (Bassia scoparia (KCHSC); dosage 320 g/ha): 90%; Pre-emergence action against Poa annua (POAAN) (Poa annua (POAAN) [18]; dosage 320 g/ha): 90%; Pre-emergence action against Poa annua (POAAN) (Poa annua (POAAN) [18]; dosage 1280 g/ha): 100%; Pre-emergence action against Stellaria media (STEME) (Stellaria media (STEME) [7]; dosage 320 g/ha): 100%; Pre-emergence action against Stellaria media (STEME) (Stellaria media (STEME) [7]; dosage 1280 g/ha): 100%; Pre-emergence action against Matricaria inodora (MATIN) ([19]; dosage 320 g/ha): 100%; Pre-emergence action against Matricaria inodora (MATIN) ([19]; dosage 1280 g/ha): 100%; Pre-emergence action against Abutilon theophrasti (ABUTH) [9]: 90%; Post-emergence action against Digitaria sanguinalis (DIGSA) ([10]; dosage 1280 g/ha): 100%; Post-emergence action against Stellaria media (STEME) (Stellaria media (STEME) [11]; dosage 320 g/ha): 100% |
